Reference: ChEMBL document CHEMBL3351302, “Design, synthesis and biological evaluation of 4-anilinothieno[2,3-d]pyrimidine-based hydroxamic acid derivatives as novel histone deacetylase inhibitors” (Bioorg Med Chem, 2014)

Columns and labels:
Histone deacetylase 1 = Histone deacetylase 1 (Homo sapiens, UniProt Q13547); experiment: Inhibition of human recombinant full length HDAC1 using (Ac)-Lys-Tyr-Lys(-acetyl)-AMC substrate after 30 mins
Histone deacetylase 3 = Histone deacetylase 3 (Homo sapiens, UniProt O15379); experiment: Inhibition of human recombinant full length HDAC3 using (Ac)-Lys-Tyr-Lys(-acetyl)-AMC substrate after 30 mins
Sequence of Histone deacetylase 3 (O15379 whole entry): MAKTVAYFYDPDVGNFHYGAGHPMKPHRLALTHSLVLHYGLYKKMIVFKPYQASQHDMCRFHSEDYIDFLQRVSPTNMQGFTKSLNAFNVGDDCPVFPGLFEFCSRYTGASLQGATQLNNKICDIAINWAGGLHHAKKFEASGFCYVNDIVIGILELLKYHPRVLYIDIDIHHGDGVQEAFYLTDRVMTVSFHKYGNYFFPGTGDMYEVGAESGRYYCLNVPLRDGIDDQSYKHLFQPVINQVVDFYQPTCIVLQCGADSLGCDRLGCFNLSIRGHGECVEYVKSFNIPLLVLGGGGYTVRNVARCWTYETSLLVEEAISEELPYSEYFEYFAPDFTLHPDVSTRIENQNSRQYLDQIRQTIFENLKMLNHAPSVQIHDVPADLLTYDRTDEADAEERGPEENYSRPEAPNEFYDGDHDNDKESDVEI

[1] = biological target: T1, Protein deacetylase HDAC6 (Homo sapiens, UniProt Q9UBN7); experiment: Inhibition of human recombinant full length HDAC6 using (Boc-Lys (-acetyl)-AMC substrate after 30 mins
T1 sequence (Q9UBN7 whole entry): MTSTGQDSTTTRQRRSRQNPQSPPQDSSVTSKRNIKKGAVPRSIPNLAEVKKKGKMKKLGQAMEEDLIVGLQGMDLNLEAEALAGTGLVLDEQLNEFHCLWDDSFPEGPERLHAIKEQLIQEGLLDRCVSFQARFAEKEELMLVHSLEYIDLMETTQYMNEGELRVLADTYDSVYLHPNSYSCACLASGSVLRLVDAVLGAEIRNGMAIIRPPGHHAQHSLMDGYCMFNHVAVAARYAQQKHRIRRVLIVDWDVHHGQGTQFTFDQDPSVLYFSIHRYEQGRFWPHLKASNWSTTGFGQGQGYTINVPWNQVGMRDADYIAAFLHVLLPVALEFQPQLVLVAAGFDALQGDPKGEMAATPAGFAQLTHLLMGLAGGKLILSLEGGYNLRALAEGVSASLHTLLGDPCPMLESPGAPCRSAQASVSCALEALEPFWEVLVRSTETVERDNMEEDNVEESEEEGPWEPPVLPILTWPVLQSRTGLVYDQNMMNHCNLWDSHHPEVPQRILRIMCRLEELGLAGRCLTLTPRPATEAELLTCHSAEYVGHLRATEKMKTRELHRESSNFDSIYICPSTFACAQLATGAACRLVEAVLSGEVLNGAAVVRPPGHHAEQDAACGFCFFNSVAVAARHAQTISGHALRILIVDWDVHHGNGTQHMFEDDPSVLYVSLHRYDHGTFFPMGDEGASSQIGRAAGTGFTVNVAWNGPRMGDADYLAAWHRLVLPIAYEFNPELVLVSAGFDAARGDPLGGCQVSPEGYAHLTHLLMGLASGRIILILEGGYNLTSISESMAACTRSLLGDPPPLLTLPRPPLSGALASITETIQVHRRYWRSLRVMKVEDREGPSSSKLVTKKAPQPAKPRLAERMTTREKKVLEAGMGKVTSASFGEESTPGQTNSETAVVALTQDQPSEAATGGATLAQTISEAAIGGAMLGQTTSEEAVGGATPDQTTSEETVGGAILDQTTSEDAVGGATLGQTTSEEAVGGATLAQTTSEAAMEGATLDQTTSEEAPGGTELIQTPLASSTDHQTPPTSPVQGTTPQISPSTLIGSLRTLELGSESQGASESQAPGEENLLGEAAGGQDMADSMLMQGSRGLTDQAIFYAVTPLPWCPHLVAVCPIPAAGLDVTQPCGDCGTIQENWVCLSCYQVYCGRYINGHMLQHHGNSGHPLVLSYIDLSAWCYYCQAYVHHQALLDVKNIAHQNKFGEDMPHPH

[2] = Antiproliferative activity against human RPMI8226 cells after 72 hrs by WST8 assay; type: functional, cell-based; conditions: RPMI-8226, 72 h
[3] = Antiproliferative activity against human HCT116 cells after 72 hrs by WST8 assay; type: functional, cell-based; conditions: HCT-116, 72 h
[4] = biological target: T2, Histone deacetylase (Homo sapiens) (UniProt Q13547+O15379+Q9UBN7+Q92769+Q9UQL6+Q8WUI4+Q9BY41+Q96DB2+P56524+Q9UKV0+Q969S8); experiment: Inhibition of HDAC in human RPMI8226 cells assessed as increase in alpha-tubulin acetylation after 24 hrs by Western blot analysis; type: cell-based; conditions: RPMI-8226
[5] = biological target: T2, Histone deacetylase (Homo sapiens); experiment: Inhibition of HDAC in human RPMI8226 cells assessed as increase in histone H3 acetylation after 24 hrs by Western blot analysis; type: cell-based; conditions: RPMI-8226

Sequence of Histone deacetylase 1 (Q13547 whole entry): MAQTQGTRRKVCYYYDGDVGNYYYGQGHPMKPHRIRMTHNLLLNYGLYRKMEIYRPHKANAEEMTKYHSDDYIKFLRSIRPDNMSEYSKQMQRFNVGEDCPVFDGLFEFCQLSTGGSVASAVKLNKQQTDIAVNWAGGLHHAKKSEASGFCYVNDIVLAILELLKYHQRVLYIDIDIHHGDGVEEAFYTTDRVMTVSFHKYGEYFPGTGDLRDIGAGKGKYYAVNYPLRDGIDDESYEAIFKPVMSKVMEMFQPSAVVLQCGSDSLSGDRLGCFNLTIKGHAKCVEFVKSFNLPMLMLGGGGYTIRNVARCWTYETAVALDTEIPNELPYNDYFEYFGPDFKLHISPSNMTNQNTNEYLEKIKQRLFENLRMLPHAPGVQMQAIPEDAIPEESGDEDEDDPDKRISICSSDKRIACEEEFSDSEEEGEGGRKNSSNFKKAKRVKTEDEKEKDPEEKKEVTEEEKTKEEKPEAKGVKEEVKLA

O=C(CCCCC(=O)Nc1cc2c(Nc3ccc(Cl)c(C(F)(F)F)c3)ncnc2s1)NO
IC50 (Histone deacetylase 1): 218 nM
IC50 (Histone deacetylase 3): 607 nM

CN(C)c1ccc(Nc2ncnc3sc(NC(=O)CCCCCCC(=O)NO)cc23)cc1F
IC50 (Histone deacetylase 1): 4.51 nM
IC50 (Histone deacetylase 3): 3.22 nM
IC50 [1]: 2.69 nM
IC50 [2]: 3490 nM
IC50 [3]: 4030 nM
inhibition [4]: Dose-dependent effect
inhibition [5]: Dose-dependent effect

O=C(CCCCCCC(=O)Nc1cc2c(Nc3ccc(N4CCCCC4)c(F)c3)ncnc2s1)NO
IC50 (Histone deacetylase 1): 5.39 nM
IC50 (Histone deacetylase 3): 8.19 nM
IC50 [1]: 3.42 nM
IC50 [2]: 3280 nM
IC50 [3]: 1440 nM

CCN(CC)c1ccc(Nc2ncnc3sc(NC(=O)CCCCCCC(=O)NO)cc23)cc1
IC50 (Histone deacetylase 1): 32.9 nM
IC50 (Histone deacetylase 3): 39.7 nM
IC50 [1]: 43.2 nM
IC50 [2]: 5950 nM
IC50 [3]: 4440 nM

O=C(CCCCCCC(=O)Nc1cc2c(Nc3ccccc3)ncnc2s1)NO
IC50 (Histone deacetylase 1): 1.9 nM
IC50 (Histone deacetylase 3): 3.47 nM
IC50 [1]: 12 nM
IC50 [2]: 3790 nM
IC50 [3]: 1820 nM
inhibition [4]: Dose-dependent effect
inhibition [5]: Dose-dependent effect

O=C(CCCCCCC(=O)Nc1cc2c(Nc3ccc(F)cc3F)ncnc2s1)NO
IC50 (Histone deacetylase 1): 10.1 nM
IC50 (Histone deacetylase 3): 16.9 nM
IC50 [1]: 7.88 nM
IC50 [2]: 7490 nM

O=C(CCCCCCC(=O)Nc1cc2c(Nc3cccc(Cl)c3)ncnc2s1)NO
IC50 (Histone deacetylase 1): 3.24 nM
IC50 (Histone deacetylase 3): 6.46 nM
IC50 [1]: 8.58 nM
IC50 [2]: 4490 nM

Cc1ccc(Nc2ncnc3sc(NC(=O)CCCCCCC(=O)NO)cc23)cc1
IC50 (Histone deacetylase 1): 2.01 nM
IC50 (Histone deacetylase 3): 2.92 nM
IC50 [1]: 5.37 nM
IC50 [2]: 3840 nM
IC50 [3]: 2340 nM
inhibition [4]: Dose-dependent effect
inhibition [5]: Dose-dependent effect

O=C(CCCCCCC(=O)Nc1cc2c(Nc3ccc(N4CCCC4)cc3)ncnc2s1)NO
IC50 (Histone deacetylase 1): 13.9 nM
IC50 (Histone deacetylase 3): 14.1 nM
IC50 [1]: 7.19 nM
IC50 [2]: 5420 nM
IC50 [3]: 3740 nM

CCN(CC)c1ccc(Nc2ncnc3sc(NC(=O)CCCCCCC(=O)NO)cc23)cc1F
IC50 (Histone deacetylase 1): 4.57 nM
IC50 (Histone deacetylase 3): 3.52 nM
IC50 [1]: 3.44 nM
IC50 [2]: 1410 nM
IC50 [3]: 2550 nM
inhibition [4]: Dose-dependent effect
inhibition [5]: Dose-dependent effect

O=C(CCCCCCC(=O)Nc1cc2c(Nc3ccc(Cl)cc3F)ncnc2s1)NO
IC50 (Histone deacetylase 1): 12.5 nM
IC50 (Histone deacetylase 3): 14.5 nM
IC50 [1]: 5.58 nM
IC50 [2]: 3500 nM
IC50 [3]: 1700 nM

O=C(CCCCCCC(=O)Nc1cc2c(Nc3ccc(O[C@H]4CCOC4)c(Cl)c3)ncnc2s1)NO
IC50 (Histone deacetylase 1): 2.97 nM
IC50 (Histone deacetylase 3): 3.58 nM
IC50 [1]: 1.9 nM
IC50 [2]: 4200 nM
IC50 [3]: 2240 nM

O=C(CCCCCC(=O)Nc1cc2c(Nc3ccc(Cl)c(C(F)(F)F)c3)ncnc2s1)NO
IC50 (Histone deacetylase 1): 40.8 nM
IC50 (Histone deacetylase 3): 48.3 nM
IC50 [1]: 30 nM

O=C(CCCCCCC(=O)Nc1cc2c(Nc3ccc(N4CCCC4)c(F)c3)ncnc2s1)NO
IC50 (Histone deacetylase 1): 14.5 nM
IC50 (Histone deacetylase 3): 14.1 nM
IC50 [1]: 9.28 nM
IC50 [2]: 4630 nM
IC50 [3]: 4090 nM

O=C(CCCCCC(=O)Nc1cc2c(Nc3ccc(F)c(Cl)c3)ncnc2s1)NO
IC50 (Histone deacetylase 1): 35.9 nM
IC50 (Histone deacetylase 3): 37.7 nM
IC50 [1]: 24 nM

O=C(CCCCCC(=O)Nc1cc2c(Nc3ccccc3)ncnc2s1)NO
IC50 (Histone deacetylase 1): 11.8 nM
IC50 (Histone deacetylase 3): 20.8 nM
IC50 [1]: 27 nM

O=C(CCCCCCC(=O)Nc1cc2c(Cl)ncnc2s1)NO
IC50 (Histone deacetylase 1): 25.5 nM
IC50 (Histone deacetylase 3): 26.5 nM
IC50 [1]: 15.1 nM
IC50 [2]: 2180 nM
IC50 [3]: 2920 nM
inhibition [4]: Dose-dependent effect
inhibition [5]: Dose-dependent effect

O=C(CCCCCCC(=O)Nc1cc2c(Nc3ccc(Cl)c(C(F)(F)F)c3)ncnc2s1)NO
IC50 (Histone deacetylase 1): 21.7 nM
IC50 (Histone deacetylase 3): 23.5 nM
IC50 [1]: 11.5 nM

O=C(CCCCCCC(=O)Nc1cc2c(Nc3ccc(F)c(Cl)c3)ncnc2s1)NO
IC50 (Histone deacetylase 1): 13.4 nM
IC50 (Histone deacetylase 3): 17.9 nM
IC50 [1]: 22 nM

Cc1ccc(Nc2ncnc3sc(NC(=O)CCCCCC(=O)NO)cc23)cc1
IC50 (Histone deacetylase 1): 14 nM
IC50 (Histone deacetylase 3): 9.33 nM
IC50 [1]: 19.7 nM

O=C(CCCCCCC(=O)Nc1cc2c(Nc3ccc(I)cc3F)ncnc2s1)NO
IC50 (Histone deacetylase 1): 6.24 nM
IC50 (Histone deacetylase 3): 13.5 nM
IC50 [1]: 6.55 nM

O=C(CCCCCCC(=O)Nc1cc2c(Nc3ccc(Br)cc3F)ncnc2s1)NO
IC50 (Histone deacetylase 1): 13.5 nM
IC50 (Histone deacetylase 3): 11.9 nM
IC50 [1]: 8.87 nM
IC50 [2]: 8120 nM

O=C(CCCCCCC(=O)Nc1cc2c(Nc3cccc(Cl)c3F)ncnc2s1)NO
IC50 (Histone deacetylase 1): 7.78 nM
IC50 (Histone deacetylase 3): 14.6 nM
IC50 [1]: 8.46 nM
IC50 [2]: 8170 nM

Cc1ccc(Nc2ncnc3sc(NC(=O)CCCCCC(=O)NO)cc23)cc1C
IC50 (Histone deacetylase 1): 29.8 nM
IC50 (Histone deacetylase 3): 14.7 nM
IC50 [1]: 16.9 nM

Cc1ccc(Nc2ncnc3sc(NC(=O)CCCCCCC(=O)NO)cc23)cc1C
IC50 (Histone deacetylase 1): 1.14 nM
IC50 (Histone deacetylase 3): 3.56 nM
IC50 [1]: 11.4 nM
IC50 [2]: 2390 nM
IC50 [3]: 1610 nM
inhibition [4]: Dose-dependent effect
inhibition [5]: Dose-dependent effect

O=C(CCCCC(=O)Nc1cc2c(Nc3ccc(F)c(Cl)c3)ncnc2s1)NO
IC50 (Histone deacetylase 1): 131 nM
IC50 (Histone deacetylase 3): 127 nM
IC50 [1]: 569 nM
